In patent US20090298903A1, “USE OF TETRAMIC ACID DERIVATIVES FOR INSECT CONTROL” (priority 2006, published 2009):

Assays:
Assay type in all cases: in vivo
[1] = tested on: flea beetles (Phyllotreta sp.); experiment: Example 24: aubergines against flea beetles; conditions: 7 d after the last of four treatments, larvae, Imidacloprid (100 SL) 100, (I-4) (100 OD) 70, Profenofos (500 EC) 500 g a.s./ha
Method: Plots approx. 12 m^2 in size which are planted with aubergines cv. “DLP” are treated, in three replications, against flea beetles (Phyllotreta sp.). The application is carried out with a knapsack sprayer which is operated with pressurized air. Here, the active substance Example (I-4) (100 OD) and the commercial standards Imidacloprid (100 SL) and Profenofos (500 EC) are applied at the specified application rates. Four applications are carried out at intervals of 7, 8 and 10 days, with a water application rate of 750 l/ha.
The test is evaluated 7 days after the last treatment by scoring the destruction rate of the larvae on the plants.

Empoasca biguttula = experiment: Example 16: aubergines against Empoasca biguttula
Method: Plots 10 m^2 in size which are planted with aubergines are treated, in three replications, against Empoasca biguttula. The application is carried out with a knapsack sprayer which is operated with pressurized air. Here, the active substance Example (I-4) (150 OD) is tested against the commercial standards Imidacloprid (SL 100) and Profenofos (500 EC) at the specified application rates. Two applications are carried out at an interval of 7 days. The water application rate is 750 l/ha.
The test is evaluated 2, 6 and 13 days after the first treatment by scoring the destruction rates of the animals (nymphs) on the plants.

Thrips tabaci [2] = experiment: Example 11: dwarf beans against Thrips tabaci
Method: Plots approx. 26 m^2 in size which are planted with dwarf beans are treated 16 days after emergence against Thrips tabaci, in four replications. The application is carried out with a knapsack sprayer which is operated with pressurized air. Here, the active substances Example (I-2) (240 SC) (I-4) (240 SC) and Example (I-9) (240 SC), in a tank mix with 0.1% a.s. rapeseed oil methyl ester (500 EW), are tested against the commercial standard Profenofos (720 EC) at the specified application rates. The water application rate is 1000 l/ha. Two applications are carried out at an interval of 10 days.
The test is evaluated 5 and 11 days after the first treatment by scoring the destruction rate of the nymphs on the leaves.

[3] = tested on: oriental fruit moth (Laspeyresia molesta); experiment: Example 28: peach trees against oriental fruit moth; conditions: 41 d after treatment, Pyrifroxyfen (35 WP) 123, Acetamiprid (30 SG) 168, (I-4) (150 OD) 153 g a.s./ha
Method: Approx. 10-year-old peach trees are treated, in four replications, against the oriental fruit moth (Laspeyresia molesta). The application is carried out with a knapsack sprayer which is operated with pressurized air. Here, the active substance (I-4) (150 OD) is tested against the commercial standards Pyriproxyfen (35 WP) and Acetamiprid (30 SG) at the specified application rates. The water application rate is 935 l/ha.
The test is evaluated 41 days after the treatment by scoring the destruction rate of the animals on the trees.

Caliothrips phaseoli = experiment: Example 3: courgettes against Caliothrips phaseoli; conditions: 8 d after treatment, nymphs on 5 leaves, Endosulfan (350 EC) 525, (I-4) (240 SC + 0.1% rapeseed oil methyl ester) 72 g a.s./ha
Method: Plots approx. 22 m^2 in size which are planted with courgettes cv. “Italiana negra” are treated, in three replications, against Caliothrips phaseoli. The application is effected with a motor-driven knapsack sprayer. Here, the active substance Example (I-4) (240 SC), in a tank mix together with 0.1% a.s. rapeseed oil methyl ester (500 EW) and the commercial standard endosulfan (350 EC), is tested at the specified application rates. The water application rate is approx. 510 l/ha.
The test is evaluated 8 days after the treatment by scoring the destruction of the animals (nymphs) on 5 leaves.

Dasineura pyri = experiment: Example 19b): pear trees against Dasineura pyri; conditions: 9 d after treatment 2, larvae in rolled leaves, Endosulfan (350 EC) 472.5, (I-4) as 240 SC + Mero (0.1% rapeseed oil methyl ester) 120 g a.s./ha/m crown level
Method: Fully-grown pear trees cv. “Conference” of crown height approx. 3.5 m are treated, in four replications, against Dasineura pyri. Here, the active substance Example (I-4) is tested as (150 OD) and (240 SC) together with 0.1% a.s. rapeseed oil methyl ester (Mero 733 1R) in a tank mix at the specified application rate against the commercial standard Endosulfan (350 EC) at the specified application rate. The application is carried out with a spray diffuser. Here, the treatment is effected with a water application rate of 1000 l/ha/m crown level. Two applications are carried out at an interval of 7 days.
The test is evaluated 9 days after treatment 2 by scoring the destruction rate of the larvae in the rolled leaves, using the Abbott method.

Pegomya spp. = experiment: Example 17: winter wheat against Pegomya spp.; conditions: 3 days after the last of two treatments (interval 7 days), larvae, Thiacloprid (240 OD) 72, (I-4) (240 SC + 0.2% rapeseed oil methyl ester) 96 g a.s./ha
Method: Plots approx. 25 m^2 in size which are planted with winter wheat cv. “Capfern” are treated, in four replications, against Pegomya spp. The application is carried out with a knapsack sprayer which is operated with pressurized air. Here, the active substance Example (I-4) (240 SC), in a tank mix with 0.2% a.s. rapeseed oil methyl ester (500 EW) and the commercial standard Thiacloprid (240 OD), is tested at the specified application rates. Two applications are carried out at an interval of 7 days. The water application rate is 350 l/ha.
The test is evaluated 3 days after the last treatment by scoring the destruction rate of the larvae on the plants.

Ceutorhynchus napi = experiment: Example 26-A: oilseed rape against Ceutorhynchus napi; conditions: 55 d after treatment, larvae, Deltamethrin (25 EC) 5, (I-4) (+ 0.2% rapeseed oil methyl ester) 72, Thiacloprid (OD 240) 72, Lambda-cyhalothrin 5 g a.s./ha
Method: Plots approx. 25 m^2 in size which are planted with oilseed rape cv. “Artus” are treated, in four replications, against Ceutorhynchus napi. The application is carried out with a motor-operated knapsack sprayer. Here, the active substance Example (I-4), in a tank mix with 0.2% a.s. rapeseed oil methyl ester (500 EW) and the commercial standards Deltamethrin (25 EC), lambda-cyhalothrin (S100) and Thiacloprid (OD 240), is tested at the specified application rates. The water application rate is 250 l/ha.
The test is evaluated 55 days after the treatment by scoring the destruction rate of the larvae on the plants.

Thrips tabaci [4] = experiment: Example 6: onions against Thrips tabaci; conditions: population on leaves
Method: Plots 15 m^2 in size which are planted with onions are treated, in two replications, against Thrips tabaci. The application is effected with a knapsack sprayer which is operated with pressurized air. Here, the active substances Example (I-4), in a tank mix together with 0.2% a.s. rapeseed oil methyl ester (500 EW) and the commercial standard dimethoate and (380 EC), are tested at the specified application rates in a tank mix with 0.9% a.s. E-actipron (900 EC). The water application rate is 300 l/ha.
The test was evaluated 43 and 62 days after the treatment by scoring the destruction rate of the population on the leaves.

Rhagoletis cerasi = experiment: Example 21: cherry trees against Rhagoletis cerasi; conditions: 23 d after treatment 2, larvae on fruits, Dimethoate (400 EC) 200, (I-4) (150 OD) 75 g a.s./ha/m crown level
Method: Cherry trees cv. “Van” which are approximately 26 years old are treated, in three replications, against Rhagoletis cerasi. The application is carried out with an atomizer. Here, the active substance Example (I-4) (150 OD) and the commercial standard dimethoate (400 EC) are applied at the specified application rates. Two applications are carried out at an interval of 6 days with a water application rate of 500 l/ha/m crown level.
The test is evaluated 23 days after treatment 2 by scoring the destruction rates of the animals (larvae) on the fruits with the aid of the Abbott formula.

[5] = tested on: apple capsid bug (Plesiocoris rugicollis); experiment: Example 1B: apple trees against apple capsid bug; conditions: 37 d after treatment, larvae on twigs, Deltamethrin (EC 025) 3.75, (I-4) (150 OD) 30 g a.s./ha/m crown level
Method: Apple trees cv. “Holsteiner Cox” which are approximately 14 years old are treated, in 3 replications, against the apple capsid bug (Plesiocoris rugicollis). Here, the active substance Example (I-4) (150 OD) is tested at the specified application rate against the commercial standard Deltamethrin liquid (EC 025) at the specified application rate. The application is carried out with a knapsack sprayer. Here, the treatment is effected with a water application rate of 500 l/ha/m crown level.
The test is evaluated 37 days after the treatment by scoring the destruction of the larvae on the twigs with the aid of the Abbott method.

[6] = tested on: Leptinotarsa decemlineata; experiment: Example 23: potatoes against Leptinotarsa decemlineata
Method: Plots approx. 10 m^2 in size which are planted with potatoes “Quarta” are treated, in three replications, against Leptinotarsa decemlineata. The application is carried out with a knapsack sprayer operated with pressurized air. Here, the active substance Example (I-4) (240 SC), in a tank mix together with 0.2% a.s. rapeseed oil methyl ester (500 EW) and the commercial standard Deltamethrin (100 EC), is tested at the specified application rate. The water application rate is 300 l/ha.
The test is evaluated 3, 8 and 20 days after the treatment by scoring the destruction rate of the animals (larvae) on the plants.

Dasineura mali = experiment: Example 19 a): apple trees against Dasineura mali; conditions: 59 d after treatment; larvae, apple twigs; Pirimicarb (50 WG) 125, (I-4) (100 OD) 72 g a.s./ha/m crown level
Method: Apple trees cv. “Elan” which are approximately 16 years old are treated, in 3 replications, against the Dasineura mali. Here, the active substance Example (I-4) (100 OD) is tested at the specified application rate against the commercial standard and Pirimicarb (50 WG) at the specified application rate. The application is carried out with a spray diffuser. Here, the treatment is effected with a water application rate of 1000 l/ha/m crown level.
The test is evaluated 59 days after the treatment by scoring the destruction of the larvae on the basis of the adults present on the twigs with the aid of the Abbott method.

Carpocapsa pomonella = experiment: Example 29: apple trees against Carpocapsa pomonella, fruit damage; conditions: application rate printed as g a.s./ha: Chlorpyrifos-methyl (25 WP) 0.1, (I-4) (240 SC + 0.1% Steffes Mero) 0.012
Method: Approx. 15-year-old apple trees cv. “Golden Delicious” are treated, in four replications, against Carpocapsa pomonella. The application is carried out with an atomizer. Here, the active substance Example (I-4) (240 SC) in a tank mix together with 0.1% a.s. of the adjuvant Steffes Mero (rapeseed oil methyl ester) (733 1R) and the commercial standard Chlorpyrifos-methyl (25 WP) are tested at the specified application rates. The water application rate is 1052 l/ha. Two applications are carried out at an interval of 13 days.
The test is evaluated 32 days after treatment 2 by scoring the fruit damage with the aid of the Abbott formula.

## CCCSP(=O)(OCC)Oc1ccc(Br)cc1Cl (stereo not shown) [Profenofos]
[1]
  Efficacy (% Abbott) 7 d: 84 % Abbott
Empoasca biguttula; 2 d after first treatment, nymphs, Imidacloprid (SL 100) 30, (I-4) (150 OD) 50, Profenofos (500 EC) 500 g a.s./ha, two applications, interval 7 days
  Efficacy (% Abott) 2 d: 41.3 % Abott
Empoasca biguttula; 6 d after first treatment, Imidacloprid 30, (I-4) 50, Profenofos 500 g a.s./ha
  Efficacy (% Abott) 6 d: 65.1 % Abott
Empoasca biguttula; 13 d after first treatment, Imidacloprid 30, (I-4) 50, Profenofos 500 g a.s./ha
  Efficacy (% Abott) 13 d: 53.8 % Abott
Thrips tabaci [2]; 5 d after first treatment, nymphs on leaves, Profenofos (720 EC) 1300, (I-9) 54, (I-2) 54, (I-4) 60 g a.s./ha, 240 SC + 0.1% rapeseed oil methyl ester
  Efficacy (% Abbott) 5 d: 80 % Abbott
Thrips tabaci [2]; 11 d after first treatment (second application at 10 days), Profenofos 1300, (I-9) 54, (I-2) 54, (I-4) 60 g a.s./ha
  Efficacy (% Abbott) 11 d: 75 % Abbott

## C/C(=N\C#N)N(C)Cc1ccc(Cl)nc1 [Acetamiprid]
[3]
  Efficacy (% Abbott) 41 d: 35.8 % Abbott

## O=S1OCC2C(CO1)C1(Cl)C(Cl)=C(Cl)C2(Cl)C1(Cl)Cl (stereo not shown) [Endosulfan, endosulfan]
Caliothrips phaseoli
  Efficacy (% Abbott) 8 d: 67.0 % Abbott
Dasineura pyri
  Efficacy (% Abbott) 9 d: 71.6 % Abbott

## N#C/N=C1\SCCN1Cc1ccc(Cl)nc1 [Thiacloprid]
Pegomya spp.
  Efficacy (% Abbott) 10 d: 100 % Abbott
Ceutorhynchus napi
  Efficacy (% Abbott) 55 d: 52.4 % Abbott

## CNC(=O)CSP(=S)(OC)OC [Dimethoate, dimethoate]
Thrips tabaci [4]; 43 d after treatment, Dimethoate (380 EC + 0.9% E-actipron) 380, (I-4) (+ 0.2% rapeseed oil methyl ester) 96 g a.s./ha
  Efficacy (% Abbott) 43 d: 64.5 % Abbott
Thrips tabaci [4]; 62 d after treatment, Dimethoate 380, (I-4) 96 g a.s./ha
  Efficacy (% Abbott) 62 d: 74.8 % Abbott
Rhagoletis cerasi
  Efficacy (% Abbott) 23 d: 100 % Abbott

## CC(COc1ccc(Oc2ccccc2)cc1)Oc1ccccn1 (stereo not shown) [Pyrifroxyfen, Pyriproxyfen]
[3]
  Efficacy (% Abbott) 41 d: 39.0 % Abbott

## CC1(C)[C@H](C(=O)O[C@H](C#N)c2cccc(Oc3ccccc3)c2)[C@@H]1C=C(Br)Br [Deltamethrin]
[5]
  Efficacy (%) Abbott 37 d: 78%
Ceutorhynchus napi
  Efficacy (% Abbott) 55 d: 77.1 % Abbott
[6]; 3 d after treatment, larvae, Deltamethrin (100 EC) 75, (I-4) (240 SC + 0.2% rapeseed oil methyl ester) 72 g a.s./ha
  Efficacy (% Abbott) 3 d: 100 % Abbott
[6]; 8 d after treatment, Deltamethrin 75, (I-4) 72 g a.s./ha
  Efficacy (% Abbott) 8 d: 100 % Abbott
[6]; 20 d after treatment, Deltamethrin 75, (I-4) 72 g a.s./ha
  Efficacy (% Abbott) 20 d: 100 % Abbott

## Cc1nc(N(C)C)nc(OC(=O)N(C)C)c1C [Pirimicarb]
Dasineura mali
  Efficacy (%) Abbott 59 d: 0%

## COP(=S)(OC)Oc1nc(Cl)c(Cl)cc1Cl [Chlorpyrifos-methyl]
Carpocapsa pomonella
  Efficacy (% Abbott) 32 d after treatment 2: 66.7 % Abbott
